This is an account of results in publication PMC11259703, “A small-molecule allele-selective transcriptional inhibitor of the MIF immune susceptibility locus” (The Journal of Biological Chemistry, 2024).

One series deals with T1, ICBP90 (UHRF1) (Homo sapiens, UniProt Q96T88).
T1 construct: SET and RING finger-associated (SRA) domain, amino acids 413 to 618 (ICBP90^413-618), C-terminal 6xHis
T1 sequence (Q96T88 413-618): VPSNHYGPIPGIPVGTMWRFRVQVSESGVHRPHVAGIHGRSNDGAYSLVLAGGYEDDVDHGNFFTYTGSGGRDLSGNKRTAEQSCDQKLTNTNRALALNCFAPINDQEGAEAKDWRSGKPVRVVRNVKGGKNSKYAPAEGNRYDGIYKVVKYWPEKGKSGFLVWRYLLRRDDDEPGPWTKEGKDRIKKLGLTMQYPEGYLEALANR
Nature of the series: AlphaScreen inhibition of purified ICBP90 SRA domain binding to biotinylated MIF promoter CATT8 DNA; confirmed by EMSA dose response. A general note: Alpha assays give light when donor and acceptor beads are brought close together.

In series [1] the test system is ICBP90 413-618 (SRA domain). Nature of the series: AlphaScreen. Conditions: IC50 of the small-molecule inhibitor CMFT, not a DNA affinity; EMSA: LightShift kit buffer, poly(dI-dC), 20 min at 22 C, 6% native PAGE; ELISA: 10 mM Tris-HCl pH 7.5, 50 mM KCl, 1 mM DTT; AlphaScreen: same plus 0.01% ….

A word on the IC50: it is the concentration that inhibits the measured activity by half. Consider `COC(=O)c1ccc(O)c2nc3c(C=O)c(O)cc(O)c3nc12` [compound 3, 1-carbomethoxy-5-formyl-4,6,8-trihydroxyphenazine], for which, at ICBP90 (UHRF1), the IC50 was found to be 0.49 µM.

Take “MIF promoter CATT8 (-794 CATT8), 5'-biotin”: in series [1], the IC50 was 0.49 µM.
